Where two headings read alike, the source gives them in different places.
How the values were obtained:
human opiate receptor μ = human opiate receptor μ (Homo sapiens, UniProt P35372); assay: Radioligand binding assay, human opiate receptor μ
Text: Another assay useful in the present invention concerns determining the ability of a ligand to bind to a biological receptor utilizing a technique well known in the art referred to as a radioligand binding assay. This assay accurately determines the specific binding of a radioligand to a targeted receptor through the delineation of its total and nonspecific binding components. Total binding is defined as the amount of radioligand that remains following the rapid separation of the radioligand bound in a receptor preparation (cell homogenates or recombinate receptors) from that which is unbound. The nonspecific binding component is defined as the amount of radioligand that remains following separation of the reaction mixture consisting of receptor, radioligand and an excess of unlabeled ligand. Under this condition, the only radioligand that remains represents that which is bound to components other that receptor. The specific radioligand bound is determined by subtracting the nonspecific from total radioactivity bound. For a specific example of radioligand binding assay for μ-opioid receptor, see Wang, J. B. et al. FEBS Letters 1994, 338, 217.
(§1) Radioligand Binding Assays (IC50, μM)
(§2) The radiobinding assays for human opiate receptor μ, κ and δ are conducted according the procedures outlined by Maguire et al. (Eur. Pharmacol. 1992, 213, 219).

human opiate receptor δ = human opiate receptor δ (Homo sapiens, UniProt P41143); assay: Radioligand binding assay, human opiate receptor δ
Protocol: as §1, §2

human opiate receptor κ = human opiate receptor κ (Homo sapiens, UniProt P41145); assay: Radioligand binding assay, human opiate receptor κ
Protocol: as §1, §2

[1] = In vivo analgesia, tail flick model; settings: Rattus norvegicus
Protocol: (§3) Various experimental procedures, well known in the art, are useful in the present invention to assess the analgesic effect of compounds, such as the “tail flick” and “hot plate” tests. The “tail flick” test can be performed by applying a noxious thermal stimulus to the rat's tail and determining the time until the nociceptive tail flick occurs.
(§4) In vivo Analgesia Experiments
The tail flick model was conducted according to D'Amour F. E. and Smith D. L. J. Pharmacol. Exp. Ther. 1941, 72, 74.

[2] = In vivo analgesia, hot plate test; settings: Rattus norvegicus
Text: as §3, §4

[3] = radioligand binding, human opiate receptor μ, read-out: μ (IC50)
[4] = radioligand binding, human opiate receptor δ, read-out: δ (IC50)
[5] = radioligand binding, human opiate receptor κ, read-out: κ (IC50)

Sequence of human opiate receptor κ (P41145 whole entry): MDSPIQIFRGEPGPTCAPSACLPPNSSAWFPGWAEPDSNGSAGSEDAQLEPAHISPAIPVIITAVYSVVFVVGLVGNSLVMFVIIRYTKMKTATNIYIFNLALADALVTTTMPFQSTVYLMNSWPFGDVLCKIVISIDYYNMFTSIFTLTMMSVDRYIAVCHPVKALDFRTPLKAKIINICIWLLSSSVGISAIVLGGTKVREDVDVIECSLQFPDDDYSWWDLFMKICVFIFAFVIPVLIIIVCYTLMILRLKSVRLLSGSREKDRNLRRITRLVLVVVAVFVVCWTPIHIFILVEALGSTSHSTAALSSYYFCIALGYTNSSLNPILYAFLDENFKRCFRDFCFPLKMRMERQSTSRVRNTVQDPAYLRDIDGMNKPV
Sequence of human opiate receptor δ (P41143 whole entry): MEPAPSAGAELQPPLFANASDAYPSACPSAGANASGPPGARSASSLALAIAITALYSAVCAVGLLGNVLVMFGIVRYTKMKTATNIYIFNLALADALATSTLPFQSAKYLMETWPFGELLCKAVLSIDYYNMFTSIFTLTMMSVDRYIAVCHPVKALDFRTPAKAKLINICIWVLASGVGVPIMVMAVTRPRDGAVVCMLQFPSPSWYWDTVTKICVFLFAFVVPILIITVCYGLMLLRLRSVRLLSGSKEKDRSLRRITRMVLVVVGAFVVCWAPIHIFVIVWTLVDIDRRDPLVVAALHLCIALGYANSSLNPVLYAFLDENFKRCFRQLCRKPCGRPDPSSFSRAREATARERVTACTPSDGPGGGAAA
Sequence of human opiate receptor μ (P35372 whole entry): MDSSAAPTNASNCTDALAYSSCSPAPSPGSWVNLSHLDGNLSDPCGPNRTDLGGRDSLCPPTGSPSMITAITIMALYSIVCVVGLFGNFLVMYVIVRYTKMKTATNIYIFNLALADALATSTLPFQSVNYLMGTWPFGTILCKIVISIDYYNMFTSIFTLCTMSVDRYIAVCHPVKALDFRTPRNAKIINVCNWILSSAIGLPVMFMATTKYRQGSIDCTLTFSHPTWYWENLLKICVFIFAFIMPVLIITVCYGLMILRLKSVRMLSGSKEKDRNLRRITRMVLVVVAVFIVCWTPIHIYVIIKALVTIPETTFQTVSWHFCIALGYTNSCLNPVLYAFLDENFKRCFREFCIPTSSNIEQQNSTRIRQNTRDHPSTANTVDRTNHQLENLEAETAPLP

For `COc1cccc(C(O)C23CN(CCc4ccccc4)CCC2CN(Cc2ccccc2)C3)c1` (centres unmarked) [Compound 14], the IC50 (human opiate receptor μ; [3]) was < 1000 nM.

For `CCC(=O)N(CC12CN(CCc3ccccc3)CCC1CN(Cc1ccccc1)C2)c1ccccc1` (centres unmarked) [Compound 23], the IC50 (human opiate receptor μ; [3]) was < 100 nM, the IC50 (human opiate receptor δ; [4]) was < 1000 nM and the IC50 (human opiate receptor κ; [5]) was < 5000 nM.

For `CCC(=O)N(CC12CN(CCc3ccccc3)CCC1CN(C(C)=O)C2)c1ccccc1` (centres unmarked) [Compound 40], the IC50 (human opiate receptor μ; [3]) was < 1000 nM.

For `C[C@@H](N(C(=O)C1CCC1)c1ccccc1)C12CN(CCc3ccccc3)CCC1CN(Cc1ccccc1)C2` (some centres unmarked) [Compound 33], the IC50 (human opiate receptor μ) was < 1000 nM, the IC50 (human opiate receptor δ) was < 5000 nM and the IC50 (human opiate receptor κ) was < 5000 nM.

With `CCC(=O)N(C[C@]12CN(CCc3ccccc3)CCC1CN(CCc1ccccc1)C2)c1ccccc1` (single isomer, unassigned) [Compound 38] the ED50 [1] was 0.18 mg/kg, the IC50 (human opiate receptor μ; [3]) was < 100 nM and the IC50 (human opiate receptor δ; [4]) was < 1000 nM. For the same compound, the IC50 (human opiate receptor κ; [5]) was < 5000 nM and the ED50 [2] was 152 mg/kg.

For `CS(=O)(=O)N(CC12CN(CCc3ccccc3)CCC1CN(Cc1ccccc1)C2)c1ccccc1` (centres unmarked) [Compound 25], the IC50 (human opiate receptor μ; [3]) was < 1000 nM and the IC50 (human opiate receptor κ; [5]) was < 10000 nM.

For `O[C@H](c1ccccc1)C12CN(CCc3ccccc3)CCC1CN(Cc1ccccc1)C2` (some centres unmarked) [Compound 12], the IC50 (human opiate receptor μ; [3]) was < 1000 nM and the IC50 (human opiate receptor κ; [5]) was < 5000 nM.

With `CCC(=O)N(CC12CN(CCc3ccccc3)CCC1CN(S(C)(=O)=O)C2)c1ccccc1` (centres unmarked) [Compound 41] the IC50 (human opiate receptor μ; [3]) was < 1000 nM.

With `CCC(=O)N(c1ccccc1)C(C)C12CN(CCc3ccccc3)CCC1CN(Cc1ccccc1)C2` (centres unmarked) [Compound 31] the IC50 (human opiate receptor μ) was < 10 nM, the IC50 (human opiate receptor δ) was < 1000 nM and the IC50 (human opiate receptor κ) was < 5000 nM.

For `O[C@@H](c1ccccc1)C12CN(CCc3ccccc3)CCC1CN(Cc1ccccc1)C2` (some centres unmarked) [Compound 11], the IC50 (human opiate receptor μ; [3]) was < 1000 nM and the IC50 (human opiate receptor κ; [5]) was < 5000 nM.

With `C[C@H](N(C(=O)C1CCC1)c1ccccc1)C12CN(CCc3ccccc3)CCC1CN(Cc1ccccc1)C2` (some centres unmarked) [Compound 32] the IC50 (human opiate receptor μ) was < 100 nM, the IC50 (human opiate receptor δ) was < 1000 nM and the IC50 (human opiate receptor κ) was < 5000 nM.

For `CCC(=O)N(CC12CN(C)CC1CCN(CCc1ccccc1)C2)c1ccccc1` (centres unmarked) [Compound 42], the IC50 (human opiate receptor μ; [3]) was < 1000 nM.

For `CCC(=O)N(C[C@@]12CN(CCc3ccccc3)CCC1CN(CCc1ccccc1)C2)c1ccccc1` (single isomer, unassigned) [Compound 37], the ED50 [1] was 0.05 mg/kg, the IC50 (human opiate receptor μ; [3]) was < 10 nM and the IC50 (human opiate receptor δ; [4]) was < 1000 nM. For the same compound, the IC50 (human opiate receptor κ; [5]) was < 1000 nM and the ED50 [2] was 0.06 mg/kg.

For `CCC(=O)N(CC12CN(CCc3ccccc3)CCC1CN(CCc1ccccc1)C2)c1ccccc1` (centres unmarked) [Compound 36], the IC50 (human opiate receptor μ) was < 10 nM, the IC50 (human opiate receptor δ) was < 1000 nM and the IC50 (human opiate receptor κ) was < 5000 nM.
